Results: US20210255193A1, “LYSINE REACTIVE PROBES AND USES THEREOF” (The Scripps Research Institute, priority 2017, published 2021)

Assays:
Experiment in all cases: competitive isoTOP-ABPP
Assay type in all cases: binding
LMNA Prelamin-A/C = target: T1, LMNA Prelamin-A/C (Homo sapiens, UniProt P02545); settings: for isoTOP-ABPP reactivity ratio at lysine P02545_K135 / R value (DMSO/fragment) for probe 1 labeling / isoTOP-ABPP ratio (R) at liganded lysine P02545_K135: 50 uM, in vitro; for isoTOP-ABPP reactivity ratio at lysine P02545_K135 / R value (DMSO/fragment) for probe 1 labeling: 231 sol; for R value (DMSO/fragment) for probe 1 labeling: P02545_K135; for isoTOP-ABPP ratio (R) at liganded lysine P02545_K135: sol, 231
T1 construct: isoTOP-ABPP experiments performed in cell lysates (in vitro); endogenous in cells; host or cells: MDA-MB-231 soluble lysate
T1 sequence (P02545 1-664): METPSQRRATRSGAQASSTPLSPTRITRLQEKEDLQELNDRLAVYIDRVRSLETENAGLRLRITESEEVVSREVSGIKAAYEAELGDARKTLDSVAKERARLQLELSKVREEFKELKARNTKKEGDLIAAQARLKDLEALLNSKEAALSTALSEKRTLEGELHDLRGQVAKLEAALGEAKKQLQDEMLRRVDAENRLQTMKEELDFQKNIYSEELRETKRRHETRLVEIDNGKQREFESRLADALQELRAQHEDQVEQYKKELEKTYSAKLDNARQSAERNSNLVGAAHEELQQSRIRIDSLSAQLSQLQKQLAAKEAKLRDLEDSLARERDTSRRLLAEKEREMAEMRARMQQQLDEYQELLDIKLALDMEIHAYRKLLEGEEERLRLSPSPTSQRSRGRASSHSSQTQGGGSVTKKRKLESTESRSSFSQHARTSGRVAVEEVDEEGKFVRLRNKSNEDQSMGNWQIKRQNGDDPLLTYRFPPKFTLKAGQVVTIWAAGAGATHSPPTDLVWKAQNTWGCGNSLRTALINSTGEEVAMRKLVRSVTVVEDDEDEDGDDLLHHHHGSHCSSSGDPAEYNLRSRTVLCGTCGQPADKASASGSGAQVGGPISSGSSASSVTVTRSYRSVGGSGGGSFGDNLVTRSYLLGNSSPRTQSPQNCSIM
Summary of the method: (§1)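 Lysine engagement is reported as R, the MS1 peak-area ratio of heavy-tagged DMSO to light-tagged compound samples. Final fragment concentrations were 50 μM for activated esters and 100 μM for guanidinylating agents; STP-alkyne probe 0.1 mM, 1 h.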

OLA1 Obg-like ATPase 1 = target: T2, OLA1 Obg-like ATPase 1 (Homo sapiens, UniProt Q9NTK5); settings: for isoTOP-ABPP reactivity ratio at lysine Q9NTK5_K248 / R value (DMSO/fragment) for probe 1 labeling / isoTOP-ABPP ratio (R) at liganded lysine Q9NTK5_K248: 50 uM, in vitro; for isoTOP-ABPP reactivity ratio at lysine Q9NTK5_K248 / R value (DMSO/fragment) for probe 1 labeling: 231 sol; for R value (DMSO/fragment) for probe 1 labeling: Q9NTK5_K248; for isoTOP-ABPP ratio (R) at liganded lysine Q9NTK5_K248: sol, 231
T2 construct: endogenous in cells; host or cells: MDA-MB-231 (soluble fraction of lysate)
Summary of the method: as §1

[1] = target: T3, GOLGB1 Golgin subfamily B member 1 (Homo sapiens, UniProt Q14789); settings: for isoTOP-ABPP reactivity ratio at lysine Q14789_K103 / R value (DMSO/fragment) for probe 1 labeling / isoTOP-ABPP ratio (R) at liganded lysine Q14789_K103: 50 uM, in vitro; for isoTOP-ABPP reactivity ratio at lysine Q14789_K103 / R value (DMSO/fragment) for probe 1 labeling: 231 sol; for R value (DMSO/fragment) for probe 1 labeling: Q14789_K103; for isoTOP-ABPP ratio (R) at liganded lysine Q14789_K103: sol, 231
T3 construct: isoTOP-ABPP experiments performed in cell lysates (in vitro); endogenous in cells; host or cells: soluble proteome of human cancer cell lines (MDA-MB-231, Ramos, Jurkat)
Summary of the method: as §1

[2] = target: T4, GLOD4 Glyoxalase domain-containing protein 4 (Homo sapiens, UniProt Q9HC38); settings: for isoTOP-ABPP reactivity ratio at lysine Q9HC38_K305 / R value (DMSO/fragment) for probe 1 labeling / isoTOP-ABPP ratio (R) at liganded lysine Q9HC38_K305: 50 uM, in vitro; for isoTOP-ABPP reactivity ratio at lysine Q9HC38_K305 / R value (DMSO/fragment) for probe 1 labeling: 231 sol; for R value (DMSO/fragment) for probe 1 labeling: Q9HC38_K305; for isoTOP-ABPP ratio (R) at liganded lysine Q9HC38_K305: sol, 231
T4 construct: endogenous in cells; host or cells: MDA-MB-231 (soluble fraction of lysate)
T4 sequence (Q9HC38 1-313): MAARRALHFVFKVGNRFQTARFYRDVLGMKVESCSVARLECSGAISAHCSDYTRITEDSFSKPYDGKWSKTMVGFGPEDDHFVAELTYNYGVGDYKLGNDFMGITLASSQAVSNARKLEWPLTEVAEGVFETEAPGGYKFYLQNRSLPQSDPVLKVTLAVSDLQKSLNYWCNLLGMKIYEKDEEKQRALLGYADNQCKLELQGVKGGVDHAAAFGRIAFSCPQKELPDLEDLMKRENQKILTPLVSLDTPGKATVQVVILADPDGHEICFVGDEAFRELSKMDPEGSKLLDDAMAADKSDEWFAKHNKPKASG
Summary of the method: as §1

T3 sequence (Q14789 whole entry, the tested form may be a part): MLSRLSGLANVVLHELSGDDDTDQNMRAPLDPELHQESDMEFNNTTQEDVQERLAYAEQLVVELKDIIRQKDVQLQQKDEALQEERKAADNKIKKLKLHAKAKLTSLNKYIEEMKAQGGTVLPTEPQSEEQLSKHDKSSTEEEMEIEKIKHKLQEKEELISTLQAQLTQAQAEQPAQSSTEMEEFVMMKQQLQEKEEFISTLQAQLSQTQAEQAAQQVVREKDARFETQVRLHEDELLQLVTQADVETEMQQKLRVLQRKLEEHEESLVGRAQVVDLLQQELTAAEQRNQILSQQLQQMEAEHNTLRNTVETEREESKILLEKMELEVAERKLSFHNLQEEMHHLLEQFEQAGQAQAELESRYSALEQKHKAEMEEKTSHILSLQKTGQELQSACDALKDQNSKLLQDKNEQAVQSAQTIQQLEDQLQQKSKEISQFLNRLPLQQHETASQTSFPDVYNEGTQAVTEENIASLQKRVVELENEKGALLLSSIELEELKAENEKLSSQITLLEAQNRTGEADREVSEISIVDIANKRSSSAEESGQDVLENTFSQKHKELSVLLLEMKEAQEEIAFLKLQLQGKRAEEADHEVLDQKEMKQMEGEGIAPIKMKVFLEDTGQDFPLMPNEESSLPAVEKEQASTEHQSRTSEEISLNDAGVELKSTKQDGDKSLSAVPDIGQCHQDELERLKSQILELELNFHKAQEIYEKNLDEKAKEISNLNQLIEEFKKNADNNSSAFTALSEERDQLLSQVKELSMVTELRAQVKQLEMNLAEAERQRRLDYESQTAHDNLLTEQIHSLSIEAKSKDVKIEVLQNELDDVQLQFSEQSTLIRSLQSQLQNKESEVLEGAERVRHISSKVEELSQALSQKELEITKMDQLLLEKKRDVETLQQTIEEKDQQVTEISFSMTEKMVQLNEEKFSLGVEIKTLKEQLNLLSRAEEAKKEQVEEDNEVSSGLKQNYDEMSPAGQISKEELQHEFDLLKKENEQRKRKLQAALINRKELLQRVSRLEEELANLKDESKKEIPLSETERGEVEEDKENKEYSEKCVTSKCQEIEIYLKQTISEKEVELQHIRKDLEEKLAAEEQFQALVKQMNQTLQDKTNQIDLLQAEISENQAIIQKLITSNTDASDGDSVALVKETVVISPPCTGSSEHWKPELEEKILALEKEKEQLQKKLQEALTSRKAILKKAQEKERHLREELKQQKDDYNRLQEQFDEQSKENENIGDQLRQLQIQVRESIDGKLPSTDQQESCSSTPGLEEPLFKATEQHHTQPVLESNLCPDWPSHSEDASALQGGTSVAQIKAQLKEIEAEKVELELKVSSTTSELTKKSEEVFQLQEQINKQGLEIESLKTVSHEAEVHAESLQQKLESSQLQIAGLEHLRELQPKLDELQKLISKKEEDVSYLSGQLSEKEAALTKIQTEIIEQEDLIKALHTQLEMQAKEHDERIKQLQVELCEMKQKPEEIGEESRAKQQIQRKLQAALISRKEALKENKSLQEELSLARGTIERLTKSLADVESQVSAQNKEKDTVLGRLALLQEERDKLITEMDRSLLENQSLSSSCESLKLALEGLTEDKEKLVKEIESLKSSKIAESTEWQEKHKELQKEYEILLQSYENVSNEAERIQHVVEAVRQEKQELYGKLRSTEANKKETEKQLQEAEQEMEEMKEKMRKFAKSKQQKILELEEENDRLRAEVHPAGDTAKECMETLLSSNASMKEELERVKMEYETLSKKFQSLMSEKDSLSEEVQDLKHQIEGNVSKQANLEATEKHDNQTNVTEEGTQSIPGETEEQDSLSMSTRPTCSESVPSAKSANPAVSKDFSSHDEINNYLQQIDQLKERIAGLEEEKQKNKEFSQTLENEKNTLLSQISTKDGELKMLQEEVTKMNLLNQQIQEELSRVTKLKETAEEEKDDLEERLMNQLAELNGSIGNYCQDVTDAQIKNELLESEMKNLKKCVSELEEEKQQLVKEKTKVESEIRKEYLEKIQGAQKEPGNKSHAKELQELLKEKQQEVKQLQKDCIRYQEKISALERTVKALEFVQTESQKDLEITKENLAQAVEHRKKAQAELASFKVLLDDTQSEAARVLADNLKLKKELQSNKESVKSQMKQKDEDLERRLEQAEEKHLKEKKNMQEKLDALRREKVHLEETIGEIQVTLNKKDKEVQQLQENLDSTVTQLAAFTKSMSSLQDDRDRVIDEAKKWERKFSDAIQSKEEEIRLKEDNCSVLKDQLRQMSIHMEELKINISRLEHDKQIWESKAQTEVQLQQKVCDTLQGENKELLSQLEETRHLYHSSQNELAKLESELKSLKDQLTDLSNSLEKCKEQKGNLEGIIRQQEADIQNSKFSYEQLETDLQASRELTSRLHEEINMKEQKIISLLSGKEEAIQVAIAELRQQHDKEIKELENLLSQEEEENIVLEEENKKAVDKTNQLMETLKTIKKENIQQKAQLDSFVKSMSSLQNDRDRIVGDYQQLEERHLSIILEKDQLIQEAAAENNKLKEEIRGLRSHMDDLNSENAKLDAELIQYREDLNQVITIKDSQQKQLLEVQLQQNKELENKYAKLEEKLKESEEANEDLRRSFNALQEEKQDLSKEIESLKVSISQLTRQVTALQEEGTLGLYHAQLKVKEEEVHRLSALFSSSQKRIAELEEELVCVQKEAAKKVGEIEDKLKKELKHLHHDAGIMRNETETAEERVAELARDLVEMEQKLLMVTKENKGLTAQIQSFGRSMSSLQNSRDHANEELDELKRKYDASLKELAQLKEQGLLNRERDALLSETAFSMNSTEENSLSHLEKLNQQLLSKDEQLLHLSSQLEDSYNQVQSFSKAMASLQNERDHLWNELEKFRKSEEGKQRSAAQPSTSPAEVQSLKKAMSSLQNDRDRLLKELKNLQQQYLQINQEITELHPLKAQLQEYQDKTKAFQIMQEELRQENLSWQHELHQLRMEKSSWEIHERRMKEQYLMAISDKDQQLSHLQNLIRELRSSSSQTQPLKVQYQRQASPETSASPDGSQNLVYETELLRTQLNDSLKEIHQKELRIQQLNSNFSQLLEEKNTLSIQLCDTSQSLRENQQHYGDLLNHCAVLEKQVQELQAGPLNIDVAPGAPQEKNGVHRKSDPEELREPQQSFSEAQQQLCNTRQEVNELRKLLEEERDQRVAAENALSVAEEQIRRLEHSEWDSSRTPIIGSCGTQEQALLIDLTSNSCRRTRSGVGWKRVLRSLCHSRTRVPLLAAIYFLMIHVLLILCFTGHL

Structure (SMILES) | isoTOP-ABPP reactivity ratio at lysine P02545_K135 (LMNA Prelamin-A/C) | isoTOP-ABPP reactivity ratio at lysine Q9NTK5_K248 (OLA1 Obg-like ATPase 1) | isoTOP-ABPP reactivity ratio at lysine Q14789_K103 [1] | isoTOP-ABPP reactivity ratio at lysine Q9HC38_K305 [2] | isoTOP-ABPP ratio (R) at liganded lysine P02545_K135 (LMNA Prelamin-A/C) | isoTOP-ABPP ratio (R) at liganded lysine Q9NTK5_K248 (OLA1 Obg-like ATPase 1) | isoTOP-ABPP ratio (R) at liganded lysine Q14789_K103 [1] | isoTOP-ABPP ratio (R) at liganded lysine Q9HC38_K305 [2] | also measured
COc1cc(CCC(=O)Oc2ccc([N+](=O)[O-])cc2[N+](=O)[O-])cc(OC)c1OC [fragment 33, 2,4-Dinitrophenyl 3-(3,4,5-trimethoxyphenyl)propanoate] | 0.7 | 1.0 | 1.0 | 0.4 | – | – | – | – | –
O=C(Oc1c(F)c(F)c(F)c(F)c1F)C(c1ccccc1)c1ccccc1 [fragment 20, Pentafluorophenyl 2,2-diphenylacetate] | – | – | – | – | – | – | – | – | R value (DMSO/fragment) for probe 1 labeling (LMNA Prelamin-A/C): 1.0; R value (DMSO/fragment) for probe 1 labeling (OLA1 Obg-like ATPase 1): 0.9; R value (DMSO/fragment) for probe 1 labeling [1]: 1.0; R value (DMSO/fragment) for probe 1 labeling [2]: 0.8
O=C(Oc1ccc([N+](=O)[O-])cc1[N+](=O)[O-])c1ccc2ccccc2n1 [fragment 35, 2,4-Dinitrophenyl quinoline-2-carboxylate] | – | – | – | – | 0.7 | 1.0 | 0.9 | 0.4 | –
O=C(CCc1ccc2c(c1)OCO2)Oc1ccc([N+](=O)[O-])cc1[N+](=O)[O-] [fragment 45, 2,4-Dinitrophenyl 3-(benzo[d][1,3]dioxol-5-yl)propanoate] | – | – | – | – | – | – | – | – | isoTOP-ABPP ratio, lysine P02545_K135 (LMNA Prelamin-A/C; 50 uM_231_sol_in vitro): 0.9; isoTOP-ABPP ratio, lysine Q9NTK5_K248 (OLA1 Obg-like ATPase 1; 50 uM_231_sol_in vitro): 1.0; isoTOP-ABPP ratio, lysine Q14789_K103 ([1]; 50 uM_231_sol_in vitro): 1.0; isoTOP-ABPP ratio, lysine Q9HC38_K305 ([2]; 50 uM_231_sol_in vitro): 0.7
COc1cc(CCC(=O)Oc2c(F)c(F)c(F)c(F)c2F)cc(OC)c1OC [fragment 23, Pentafluorophenyl 3-(3,4,5-trimethoxyphenyl)propanoate] | – | – | – | – | – | – | – | – | R value (DMSO/fragment) for probe 1 labeling (LMNA Prelamin-A/C): 0.9; R value (DMSO/fragment) for probe 1 labeling (OLA1 Obg-like ATPase 1): 1.0; R value (DMSO/fragment) for probe 1 labeling [1]: 1.0; R value (DMSO/fragment) for probe 1 labeling [2]: 0.9
O=C(Oc1ccc([N+](=O)[O-])cc1[N+](=O)[O-])c1ccccc1Nc1cccc(C(F)(F)F)c1 [fragment 40, 2,4-Dinitrophenyl 2-((3-(trifluoromethyl)phenyl)amino)benzoate] | – | – | – | – | 1.2 | 0.9 | 0.9 | 0.8 | –
O=C(Oc1ccc([N+](=O)[O-])cc1[N+](=O)[O-])c1ccc(Oc2ccccc2)cc1 [fragment 39, 2,4-Dinitrophenyl 4-phenoxybenzoate] | – | – | – | – | 1.0 | 0.9 | 0.9 | 0.8 | –
O=C(Oc1c(F)c(F)c(F)c(F)c1F)c1ccc2ccccc2n1 [fragment 25, Pentafluorophenyl quinoline-2-carboxylate] | 0.9 | 1.0 | 1.0 | 0.4 | – | – | – | – | –
O=C(Oc1ccc([N+](=O)[O-])cc1[N+](=O)[O-])C(c1ccccc1)c1ccccc1 [fragment 30, 2,4-Dinitrophenyl 2,2-diphenylacetate] | 20.0 | 1.0 | 1.4 | 0.6 | – | – | – | – | –
O=C(Oc1ccc([N+](=O)[O-])cc1[N+](=O)[O-])c1cc(C(F)(F)F)cc(C(F)(F)F)c1 [fragment 31, 2,4-Dinitrophenyl 3,5-bis(trifluoromethyl)benzoate] | 1.3 | 1.0 | 0.9 | 0.5 | – | – | – | – | –
CC(=O)Oc1ccc([N+](=O)[O-])cc1[N+](=O)[O-] [fragment 43, 2,4-Dinitrophenyl acetate] | – | – | – | – | 20.0 | 1.0 | 1.0 | 0.7 | –
